Experiments:
[1] = INS HCl solubility and stability in isotonic buffers of different pH (5 mg/ml in buffer, diluted to 1 mg/ml, LC-MS); assay type: physicochemical
Experimental: Analytical HPLC-MS was performed using an Agilent 1260 series Liquid Chromatograph/Mass Selective Detector (MSD, Single Quadrupole) equipped with an electrospray interface and a UV diode array detector. Analyses were performed on an ACE C8, 50×3.0 mm, 3 μm column, with an isocratic 0.1% formic acid/ACN (19%) eluent, at a rate of 1 ml/min over a period of 5 minutes. UV absorption was measured at 220 nm and 215-395 nm. MS analysis was performed with ESI (electron spray ionization) with a positive ionization method. PBS isotonic buffer was prepared from 1 tablet of Sigma Phosphate buffer saline P4417, in 200 ml of deionized water (according to product reconstitution instructions). Acetate isotonic buffers were prepared from sodium acetate/acetic acid in water in 150 mM concentration. NaOH 50% solution was used to adjust the pH. NaOAc solution was prepared by dissolving 1.23 gr in 100 ml water. Acetic acid solution was prepared by adding 945 μl of acetic acid to 100 ml water. […] The samples were further diluted to 1 mg/ml before analyzing by HPLC. The samples were prepared by dilution of 80 μl of reaction solution with 320 μl of MeOH. Each sample was filtered through PTFE 0.45 um filter vial. The samples were run in LC-MS and data used for calculation concentration in buffer. All injections for stability assay were performed using 20 μl due to low peak intensity with 2 μl. Final concentration was calculated accordingly.

[2] = system: 1975 human lung cancer cells; assay: Lung cancer tumor mice model; assay type: in vivo, athymic nude mice; details: for Inhibition of growth of lung cancer tumors relative to control: day 11
Experimental: (§1) Two models of cancer were generated: lung cancer and pancreatic cancer. About 5×10^6 of 1975 human lung cancer cells per 0.1 ml PBS per mouse were injected to male 7 weeks old athymic nude mice (n=30). The cells were injected, subcutaneously at one site on the back of the mice. About 5×10^6 PANC-1 human pancreatic cancer cells per 0.1 ml PBS per mouse were injected to male 7 weeks old athymic nude mice (n=22). The cells were injected, subcutaneously at one site on the back of the mice. When tumors were palpable (˜0.3-0.5 cm^3), the mice were randomly divided into three groups (Table 27) and the viruses and/or peptides were injected, twice a week for two weeks.
(§2) The first day of the study was defined as ‘Day 1’. The animals were administrated IP with either Vehicle (PBS or Formulation), lentiviral particles and SC with test items according to Table 27 on days 1, 4, 8 and 11. Body weight and tumor volume were checked on days 3, 7, 11, 14 and 17 (the latter was measured with a caliper). At the end of the experiment, on day 17, the mice were anesthetized and then sacrificed, and the tumors were removed, as well as lung, spleen, kidney and liver.

[3] = system: PANC-1 human pancreatic cancer cells; assay: Pancreatic cancer tumor mice model; assay type: in vivo, athymic nude mice; details: day 17
Experimental: as §1, §2

[4] = Phase I/IIa clinical trial: safety and tolerability; assay type: in vivo, human; details: HIV patients, 5 weeks SC administration
From the text: Patients are monitored for adverse events (AE) of the INS peptide such as rash, acute allergic reaction, bronchospasm, respiratory distress, and acute vascular leak syndrome. If a severe administration related reaction occurs, the drug administration is stopped. Blood chemistry, hematology, coagulation, and urinalysis are repeated on Days 1, 4, 8, 11, 15, 18, 22, 25 at the clinic visits.
The primary safety endpoint is the frequency, severity, and duration of side effects. Number of participants with treatment-related adverse events as assessed by CTCAE v4.03, are evaluated though study completion. Main adverse events evaluation is based on DADS Toxicity criteria (Division of AIDS DADS Table for Grading the Severity of Adult and Paediatric Adverse Events, Corrected Version 2.1): • Viral load • Lymphopenia/Neutropenia • Immuno-reaction over reaction/cytokine storm • Infection surrounding the administration site • Liver function (lab tests) • Kidney function (lab tests)
Incidence of withdrawal (drop-out rate) due to side effects is evaluated throughout the study.

[5] = PBS buffer pH 7.4, at 5° C. and at 25° C., 0 hours
[6] = acetate buffer pH 4, 5° C., 0 hours
[7] = acetate buffer pH 4, 5° C., 24 hours
[8] = acetate buffer pH 4, 5° C., 168 hours
[9] = acetate buffer pH 4, 25° C., 0 hours
[10] = acetate buffer pH 4, 25° C., 24 hours
[11] = acetate buffer pH 4, 25° C., 168 hours
[12] = acetate buffer pH 6, 5° C., 0 hours
[13] = acetate buffer pH 6, 5° C., 24 hours
[14] = acetate buffer pH 6, 5° C., 168 hours
[15] = acetate buffer pH 6, 25° C., 0 hours
[16] = acetate buffer pH 6, 25° C., 24 hours
[17] = acetate buffer pH 6, 25° C., 168 hours

In the case of WTAVQMAVFIHNFKRK [INS], the Area [1, 5] was 201.90 mAU*S, the Assay % [1, 5] was 2.91% and the “Concentration calculated from LC-MS data” value [1, 5] was 30 µg/mL. For the same sequence, the Area ([1]; PBS buffer pH 7.4, at 5° C. and at 25° C., 24 hours) was “Not observed”, the Area ([1]; PBS buffer pH 7.4, at 5° C. and at 25° C., 168 hours) was “Not observed” and the “Solubility in PBS buffer pH 7.4” value ([1]; a white precipitate was observed) was “no solubility at all”. The Assay % [1, 6] was 66.84%, the “Concentration calculated from LC-MS data” value [1, 6] was 646 µg/mL and the Assay % [1, 7] was 62.32%. The “Concentration calculated from LC-MS data” value [1, 7] was 602 µg/mL, the Assay % [1, 8] was 62.00% and the “Concentration calculated from LC-MS data” value [1, 8] was 599 µg/mL. The Assay % [1, 9] was 66.87%, the “Concentration calculated from LC-MS data” value [1, 9] was 646 µg/mL and the Assay % [1, 10] was 66.25%. For the same sequence, the “Concentration calculated from LC-MS data” value [1, 10] was 640 µg/mL, the Assay % [1, 11] was 36.75% and the “Concentration calculated from LC-MS data” value [1, 11] was 355 µg/mL. For the same sequence, the Assay % [1, 12] was 73.49%, the “Concentration calculated from LC-MS data” value [1, 12] was 729 µg/mL and the Assay % [1, 13] was 53.43%. The “Concentration calculated from LC-MS data” value [1, 13] was 530 µg/mL, the Assay % [1, 14] was 44.15% and the “Concentration calculated from LC-MS data” value [1, 14] was 438 µg/mL. The Assay % [1, 15] was 73.49%, the “Concentration calculated from LC-MS data” value [1, 15] was 729 µg/mL and the Assay % [1, 16] was 52.42%. The “Concentration calculated from LC-MS data” value [1, 16] was 520 µg/mL, the Assay % [1, 17] was 21.98% and the “Concentration calculated from LC-MS data” value [1, 17] was 218 µg/mL. The “Assay at time zero” value ([1]; acetate buffers pH 4 and pH 6) was “about 70%”, the “Stability at 5° C. versus 25° C.” value ([1]; acetate buffers pH 4 and pH 6) was “better stability at 5 °C compared to the samples at 25 °C” and the “Inhibition of growth of lung cancer tumors relative to control” value ([2]; lentiviral particles IP + INS peptide 1.25 mg/kg SC on days 1, 4, 8, 11) was 50%. The “Inhibition of growth of lung cancer tumors relative to control” value ([2]; lentiviral particles IP + INS peptide 2.5 mg/kg SC on days 1, 4, 8, 11) was 50%, the “Comparison of doses at the end of the experiment” value ([2]; day 17, INS 1.25 mg/kg versus 2.5 mg/kg, with lentiviral particles) was “better results than with INS 2.5 mg/kg” and the “Reduction of weight of tumors relative to control” value ([3]; lentiviral particles + INS 1.25 mg/kg SC) was 25%. For the same sequence, the “Reduction of weight of tumors relative to control” value ([3]; lentiviral particles + INS 2.5 mg/kg SC) was 50% and the “Side effects and harm to immune system (monitored by CD4 cells)” value [4] was “no side effects and no harm to immune system”.

Source: patent publication US20220233652A1, “Pharmaceutical Compositions Comprising Integration-Promoting Peptides” (priority 2018, published 2022)
